For nine molecules, relative permittivity results are on record in the NIST ThermoML archive (doi:10.1016/j.jct.2012.02.011).

Data set [1] can be described thus: relative permittivity at various frequencies (dimensionless). The note with it: 101.3 kPa, Liquid, Frequency=3 MHz.
A short description of data set [2]: relative permittivity at various frequencies (dimensionless); xn = mol fraction of the nth substance listed. The note with it: 101.33 kPa, Liquid, Frequency=3 MHz, OH-301.

“And” between values parts separate entries of the source, which are not always exact repeats. Equal values may be shown once. Numbers after ± are expanded uncertainties.

For the molecule `O=[N+]([O-])c1ccccc1` [nitrobenzene], the relative permittivity in data set [1] (293.15 K, OH-301 Stainless Steel Cell) came out at 35.91 ± 0.06; in data set [1] (298.15 K, OH-301 Stainless Steel Cell) it was 34.78 ± 0.04; in data set [1] (303.15 K, OH-301 Stainless Steel Cell), 33.84 ± 0.05; in data set [1] (308.15 K, OH-301 Stainless Steel Cell) it was 33.13 ± 0.05; in data set [1] (313.15 K, OH-301 Stainless Steel Cell) it was 32.66 ± 0.04.

Take `O=[N+]([O-])c1ccccc1` [nitrobenzene] + CCCOCCO: the relative permittivity in data set [2] (293.15 K, x1 = 1) was 35.91 ± 0.06; in data set [2] (298.15 K, x1 = 1), 34.78 ± 0.06; in data set [2] (303.15 K, x1 = 1) it was 33.84 ± 0.05; in data set [2] (308.15 K, x1 = 1), 33.13 ± 0.05; in data set [2] (313.15 K, x1 = 1), 32.66 ± 0.04.

Regarding `CCOCCO` [2-ethoxyethan-1-ol], the relative permittivity in data set [1] (293.15 K, OH-301) is on record as 14.25 ± 0.04; in data set [1] (298.15 K, OH-301) it was 14.03 ± 0.04; in data set [1] (303.15 K, OH-301), 13.76 ± 0.04; in data set [1] (308.15 K, OH-301), 13.44 ± 0.04; in data set [1] (313.15 K, OH-301), 13.07 ± 0.04.

Regarding `COCCO` [2-methoxyethan-1-ol] + O=[N+]([O-])c1ccccc1, the relative permittivity was determined as 17.38 ± 0.04 in data set [2] (293.15 K, x2 = 0); 16.96 ± 0.04 in data set [2] (298.15 K, x2 = 0); 16.56 ± 0.04 in data set [2] (303.15 K, x2 = 0); 16.16 ± 0.04 in data set [2] (308.15 K, x2 = 0); 15.77 ± 0.04 in data set [2] (313.15 K, x2 = 0).

For `COCCO` [2-methoxyethan-1-ol], the relative permittivity in data set [1] (293.15 K, OH-301) was 17.38 ± 0.04; in data set [1] (298.15 K, OH-301), 16.95 ± 0.04 and 16.96 ± 0.04; in data set [1] (303.15 K, OH-301), 16.56 ± 0.04; in data set [1] (308.15 K, OH-301), 16.16 ± 0.04; in data set [1] (313.15 K, OH-301), 15.77 ± 0.04.

For the molecule `O=[N+]([O-])c1ccccc1` [nitrobenzene] + CCCCOCCO, the relative permittivity in data set [2] (293.15 K, x1 = 1) turned out to be 35.91 ± 0.06; in data set [2] (298.15 K, x1 = 1), 34.78 ± 0.06; in data set [2] (303.15 K, x1 = 1), 33.84 ± 0.05; in data set [2] (308.15 K, x1 = 1), 33.13 ± 0.05; in data set [2] (313.15 K, x1 = 1), 32.66 ± 0.04.

Take `CCCOCCO` [2-propoxyethanol]: the relative permittivity is listed as 11.76 ± 0.04 in data set [1] (293.15 K, OH-301); 11.5 ± 0.04 in data set [1] (298.15 K, OH-301); 11.19 ± 0.04 in data set [1] (303.15 K, OH-301); 10.91 ± 0.04 in data set [1] (308.15 K, OH-301); 10.62 ± 0.04 in data set [1] (313.15 K, OH-301).

Regarding `O=[N+]([O-])c1ccccc1` [nitrobenzene] + CCOCCO, the relative permittivity stood at 35.91 ± 0.06 in data set [2] (293.15 K, x1 = 1); 34.78 ± 0.06 in data set [2] (298.15 K, x1 = 1); 33.84 ± 0.05 in data set [2] (303.15 K, x1 = 1); 33.13 ± 0.05 in data set [2] (308.15 K, x1 = 1); 32.66 ± 0.04 in data set [2] (313.15 K, x1 = 1).

For `CCCCOCCO` [2-butoxyethan-1-ol], the relative permittivity in data set [1] (293.15 K, OH-301) turned out to be 9.78 ± 0.04; in data set [1] (298.15 K, OH-301), 9.35 ± 0.04; in data set [1] (303.15 K, OH-301), 8.88 ± 0.04; in data set [1] (308.15 K, OH-301), 8.39 ± 0.04; in data set [1] (313.15 K, OH-301) it was 7.91 ± 0.04.
